Experimental data from publication PMC8482815, “Targeting Host Glycolysis as a Strategy for Antimalarial Development” (Frontiers in Cellular and Infection Microbiology, 2021).
Values joined by “and” are separate entries in the source; they are usually repeats but may differ in a detail not shown here. Equal entries are not always repeated.

Test system: human erythrocytes
Experiment: Untargeted metabolomics and 13C-glucose tracing of enolase inhibitor treated erythrocytes
Format: cell-based
Settings: 1h
Protocol: Freshly collected erythrocytes were washed, resuspended to 10% hematocrit in buffer [25mM HEPES (pH 7.4), 120mM NaCl, 5.4mM KCl, 1.8mM CaCl2, and 1mM NaH2PO4], incubated for 1 hour at 37°C, then centrifuged at 2000xg for 5 minutes at 4°C, resuspended in fresh wash buffer to 30-40% hematocrit, and split into 210µL aliquots of packed erythrocytes. […] All samples were incubated at 37°C shaking at 500 RPM. Triplicate samples of supernatants and packed erythrocytes were collected at 0, 0.5, 1, and 6-hour intervals and snap-frozen in liquid N2.
RBC and media samples were extracted at 1:10 and 1:20 dilutions, respectively, in 5:3:2 MeOH : MeCN:H2O v/v/v, and supernatants analyzed on a Thermo Vanquish UHPLC coupled to a Thermo Q Exactive mass spectrometer, as extensively described ([Nemkov et al., 2015]; [Nemkov et al., 2017]). The extraction buffer was supplemented with 40uM 3-^13C lactate to allow absolute quantification of lactate isotopologues, including lactate generated via glycolysis ([1,2,3-^13C3] enriched) vs. the pentose phosphate pathway ([2,3-^13C2] enriched), as described ([Reisz et al., 2016]). Metabolite assignments, peak area integration and isotopologues distributions were determined using Maven (Princeton University) ([Nemkov et al., 2015]; [Nemkov et al., 2017]).
Data were auto-scaled and normalized to zero-hour time points. Metabolites were removed from the dataset if greater than 50% of the samples contained missing values or the relative standard deviation among replicates exceeded 25%. Additionally, data was filtered using the interquartile range to reduce near-constant values from the experiment by 5%.
A principal component analysis of preprocessed data was plotted with the 95% confidence interval minimum volume enclosing ellipsoid for each respective group (MetaboAnalyst, cluster, plotly). A two-way repeated measures analysis of variance (ANOVA) was performed with multiple comparisons corrected for using a false discovery rate p-value cutoff of 0.05. Metabolite-Pathway analysis was performed using the R package of MetaboAnalyst, as previously described ([Xia and Wishart, 2010]). Metabolite-Protein nodal analysis was performed using omicsnet.ca and as previously described ([Zhou and Xia, 2018]).

[1] = treated erythrocytes, one value per replicate sample, polarity +
[2] = treated erythrocytes, one value per replicate sample, polarity -
[3] = treated erythrocytes, replicate samples

For `CC(C)(C)C(=O)OCOP(=O)(OCOC(=O)C(C)(C)C)C1CCCN(O)C1=O` (stereo not shown) [POMHEX], the “AMP level (metabolomics signal)” value (replicate samples) was 1.96E+06 and 2.60E+06 and 1.22E+06, the “ATP level (metabolomics signal)” value (replicate samples) was 1.32E+04 and 2.11E+04 and 3.43E+04 and the “Adenine level (metabolomics signal)” value (replicate samples) was 1.75E+05 and 1.63E+05 and 1.61E+05. The “Cytosine level (metabolomics signal)” value (replicate samples) was 4.76E+05 and 3.43E+05 and 2.67E+05, the “L-alanine level (metabolomics signal)” value (replicate samples) was 1.12E+07 and 9.08E+06 and 1.05E+07 and the “L-arginine level (metabolomics signal)” value (replicate samples) was 4.18E+06 and 1.19E+07 and 3.04E+06. The “L-asparagine level (metabolomics signal)” value (replicate samples) was 7.53E+06 and 8.13E+06 and 7.16E+06, the “L-aspartate level (metabolomics signal)” value (replicate samples) was 2.28E+07 and 2.29E+07 and 1.75E+07 and the “L-cysteine level (metabolomics signal)” value (replicate samples) was 2.57E+05 and 1.28E+06 and 6.21E+05. The “L-glutamate level (metabolomics signal)” value (replicate samples) was 2.16E+07 and 2.10E+07 and 1.73E+07, the “L-glutamine level (metabolomics signal)” value (replicate samples) was 6.97E+07 and 8.81E+07 and 6.57E+07 and the “L-histidine level (metabolomics signal)” value (replicate samples) was 1.22E+06 and 1.29E+06 and 1.07E+06. For the same compound, the “L-isoleucine level (metabolomics signal)” value (replicate samples) was 9.19E+06 and 1.31E+07 and 8.52E+06, the “L-leucine level (metabolomics signal)” value (replicate samples) was 1.97E+08 and 2.85E+08 and 1.36E+08 and the “L-lysine level (metabolomics signal)” value (replicate samples) was 1.46E+06 and 1.53E+06 and 1.05E+06. The “L-methionine level (metabolomics signal)” value (replicate samples) was 1.81E+07 and 2.91E+07 and 1.59E+07, the “L-phenylalanine level (metabolomics signal)” value (replicate samples) was 1.22E+07 and 1.56E+07 and 8.20E+06 and the “L-proline level (metabolomics signal)” value (replicate samples) was 4.14E+07 and 6.25E+07 and 4.63E+07. The “L-serine level (metabolomics signal)” value (replicate samples) was 6.19E+06 and 5.89E+06 and 5.91E+06, the “L-threonine level (metabolomics signal)” value (replicate samples) was 7.85E+06 and 8.68E+06 and 7.03E+06 and the “L-tryptophan level (metabolomics signal)” value (replicate samples) was 4.00E+06 and 3.89E+06 and 2.67E+06. The “L-tyrosine level (metabolomics signal)” value (replicate samples) was 2.39E+07 and 3.62E+07 and 2.21E+07, the “L-valine level (metabolomics signal)” value (replicate samples) was 1.59E+08 and 1.34E+08 and 1.66E+08 and the “dCMP level (metabolomics signal)” value (replicate samples) was 6.47E+03 and 1.42E+04 and 8.65E+03. For the same compound, the “dTMP level (metabolomics signal)” value (replicate samples) was 6.95E+05 and 1.44E+06 and 5.66E+05, the “glycine level (metabolomics signal)” value (replicate samples) was 2.53E+06 and 2.52E+06 and 2.98E+06 and the “N-Acyl-D-aspartate (C06380) metabolite signal” value [1] was 1.39E+05 and 1.05E+05 and 7.72E+04. The “Poly-gamma-D-glutamate (C05723) metabolite signal” value [1] was 4.55E+07 and 6.01E+07 and 4.31E+07, the “D-Ribitol 5-phosphate (C01068) metabolite signal” value [2] was 1.36E+04 and 3.79E+04 and 1.11E+04 and the “D-glucono-1,5-lactone (C00198) metabolite signal” value [2] was 3.37E+05 and 3.01E+05 and 3.48E+05. For the same compound, the “L-Noradrenaline (C00547) metabolite signal” value [2] was 3.29E+04 and 4.04E+04 and 2.83E+04, the “Oxalosuccinate (C05379) metabolite signal” value [2] was 9.85E+04 and 9.72E+04 and 1.00E+05 and the “Pyridoxamine (C00534) metabolite signal” value [2] was 1.26E+04 and 1.81E+04 and 8.56E+03. The “Thioredoxin disulfide (C00343) metabolite signal” value [2] was 3.49E+04 and 1.17E+05 and 2.13E+04, the “1-4-beta-D-Xylan (metabolite signal)” value [3] was 1.76E+05 and 2.60E+05 and 1.54E+05 and the “2-Hydroxyglutarate/Citramalate (C02630) metabolite signal” value [3] was 4.45E+04 and 4.76E+04 and 4.24E+04. The “5-6-Dihydrothymine (C00906) metabolite signal” value [3] was 2.57E+05 and 3.03E+05 and 1.85E+05, the “5-10-Methenyltetrahydrofolate (metabolite signal)” value [3] was 1.81E+05 and 1.74E+05 and 1.10E+05 and the “5-Hydroxyisourate (C11821) metabolite signal” value [3] was 4.87E+06 and 2.62E+06 and 4.93E+06. The “5-L-Glutamyl-taurine (metabolite signal)” value [3] was 1.73E+05 and 9.38E+04 and 2.11E+05, the “5-Oxoproline (metabolite signal)” value [3] was 5.99E+05 and 6.10E+05 and 6.21E+05 and the “(S)(+)-Allantoin (C02350) metabolite signal” value [3] was 1.83E+04 and 1.70E+04 and 1.48E+04. The “Allantoate (C00499) metabolite signal” value [3] was 1.28E+05 and 4.06E+05 and 1.02E+05, the “Ascorbate (metabolite signal)” value [3] was 6.30E+04 and 1.08E+05 and 4.97E+04 and the “CMP-N-acetylneuraminate (metabolite signal)” value [3] was 6.05E+03 and 4.63E+03 and 2.62E+03. For the same compound, the “Carnosine (metabolite signal)” value [3] was 2.09E+05 and 1.71E+05 and 1.90E+05, the “Citrate (C00158) metabolite signal” value [3] was 1.89E+04 and 2.10E+04 and 1.46E+04 and the “Creatine (metabolite signal)” value [3] was 2.57E+08 and 2.12E+08 and 2.30E+08. For the same compound, the “Creatinine (metabolite signal)” value [3] was 2.38E+06 and 2.51E+06 and 2.49E+06, the “Cys-Gly (metabolite signal)” value [3] was 7.57E+05 and 1.20E+06 and 8.09E+05 and the “D-Glucosamine (metabolite signal)” value [3] was 6.03E+05 and 3.34E+05 and 1.05E+06. The “D-Glucose (C00031) metabolite signal” value [3] was 4.53E+06 and 6.78E+06 and 3.73E+06, the “D-Ribose (C00121) metabolite signal” value [3] was 1.22E+05 and 1.96E+05 and 1.18E+05 and the “Dehydroascorbate (metabolite signal)” value [3] was 4.03E+04 and 3.78E+04 and 2.56E+04. For the same compound, the “Dihydrofolate (metabolite signal)” value [3] was 6.94E+05 and 1.83E+06 and 6.55E+05, the “Dimethylglycine (metabolite signal)” value [3] was 1.12E+06 and 8.60E+05 and 1.04E+06 and the “Diphosphate (C00013) metabolite signal” value [3] was 1.40E+04 and 3.85E+04 and 1.73E+04. The “Fumarate (C00122) metabolite signal” value [3] was 8.16E+04 and 8.08E+04 and 7.78E+04, the “Glutathione (C00051) metabolite signal” value [3] was 5.06E+07 and 7.77E+07 and 5.74E+07 and the “Glutathione disulfide (metabolite signal)” value [3] was 7.45E+04 and 7.57E+04 and 5.41E+04. The “Hypoxanthine (C00262) metabolite signal” value [3] was 6.66E+03 and 1.71E+04 and 1.69E+04, the “IMP (C00130) metabolite signal” value [3] was 7.81E+04 and 9.15E+04 and 6.22E+04 and the “Inosine (C00294) metabolite signal” value [3] was 6.22E+04 and 5.44E+04 and 6.05E+04. The “L-Citrulline (metabolite signal)” value [3] was 5.24E+06 and 4.00E+06 and 4.92E+06, the “L-Homoserine (metabolite signal)” value [3] was 1.76E+05 and 2.52E+05 and 1.58E+05 and the “Lactate (C01432) metabolite signal” value [3] was 7.95E+06 and 9.12E+06 and 7.54E+06. The “Malate (C00149) metabolite signal” value [3] was 6.76E+04 and 6.17E+04 and 6.25E+04, the “Mannitol (C00392) metabolite signal” value [3] was 1.25E+05 and 1.54E+05 and 1.02E+05 and the “N-Acetylneuraminate (metabolite signal)” value [3] was 1.98E+04 and 1.32E+04 and 1.62E+04. For the same compound, the “N-Glycoloyl-neuraminate (metabolite signal)” value [3] was 7.97E+04 and 1.42E+05 and 5.68E+04, the “NAD+ (C00003) metabolite signal” value [3] was 1.57E+04 and 4.46E+04 and 2.15E+04 and the “Nicotinamide (C00153) metabolite signal” value [3] was 4.80E+07 and 5.08E+07 and 4.18E+07. For the same compound, the “Ornithine (metabolite signal)” value [3] was 1.57E+06 and 1.30E+06 and 1.16E+06, the “Oxaloacetate (C00036) metabolite signal” value [3] was 3.29E+04 and 5.49E+04 and 3.03E+04 and the “Phosphoserine (metabolite signal)” value [3] was 0.00E+00 (2×) and 1.77E+04. The “Putrescine (metabolite signal)” value [3] was 4.04E+04 and 3.04E+04 and 2.63E+04, the “Pyridoxal (C00250) metabolite signal” value [3] was 5.25E+04 and 8.23E+04 and 7.59E+04 and the “Pyruvate (C00022) metabolite signal” value [3] was 5.39E+05 and 7.10E+05 and 4.33E+05. For the same compound, the “S-Glutathionyl-L-cysteine (metabolite signal)” value [3] was 5.57E+04 and 6.02E+04 and 1.82E+04, the “Sedoheptulose 1-phosphate (C06222) metabolite signal” value [3] was 2.81E+03 and 3.84E+03 and 2.38E+03 and the “Spermidine (metabolite signal)” value [3] was 7.32E+06 and 6.78E+06 and 6.25E+06. For the same compound, the “Spermine (metabolite signal)” value [3] was 7.58E+06 and 7.10E+06 and 6.92E+06, the “Succinate (C00042) metabolite signal” value [3] was 6.13E+04 and 9.94E+04 and 5.79E+04 and the “Thymidine (C00214) metabolite signal” value [3] was 1.12E+04 and 1.26E+04 and 8.73E+03. For the same compound, the “UDP (C00015) metabolite signal” value [3] was 5.07E+04 and 1.42E+05 and 2.88E+04, the “UDP-N-acetyl-D-glucosamine (metabolite signal)” value [3] was 2.55E+03 and 3.51E+03 and 2.64E+03 and the “UDP-glucose (C00029) metabolite signal” value [3] was 5.62E+03 and 1.08E+04 and 6.04E+03. The “Urate (C00366) metabolite signal” value [3] was 2.31E+04 and 2.80E+04 and 2.12E+04, the “Xanthine (C00385) metabolite signal” value [3] was 1.88E+05 and 1.43E+05 and 1.48E+05 and the “alpha-D-Glucosamine 1-phosphate (metabolite signal)” value [3] was 8.86E+05 and 4.48E+05 and 1.21E+06. For the same compound, the “alpha-D-Ribose 1-phosphate (C00620) metabolite signal” value [3] was 2.29E+04 and 4.78E+04 and 2.91E+04, the “gamma-Glutamyl-gamma-aminobutyrate (metabolite signal)” value [3] was 9.00E+04 and 5.89E+04 and 7.26E+04 and the “gamma-L-Glutamyl-D-alanine (metabolite signal)” value [3] was 1.81E+04 and 1.74E+04 and 1.70E+04. For the same compound, the “gamma-L-Glutamyl-L-cysteine (metabolite signal)” value [3] was 1.43E+04 and 3.68E+04 and 6.67E+03.
